Data taken from the NIST ThermoML archive (doi:10.1021/je101304x).

Conditions: Liquid, Ebulliometric method (Recirculating still)

C=C(C)C(C)C [2,3-dimethyl-1-butene]
Conditions	vapor or sublimation pressure [kPa]
341.87 K	153.7
343.06 K	158.1
343.95 K	162.3
345.83 K	171.3
347.12 K	178.2
348.71 K	186.4
350.49 K	196.3
352.78 K	208.6
353.27 K	211.3
354.06 K	216.3
356.15 K	228.9
358.73 K	244.9
361.3 K	262.1
362.89 K	273.7
363.19 K	275.3
364.38 K	284.9
365.57 K	292.7
366.96 K	303.8
368.24 K	313.9
369.04 K	319.7
370.13 K	328.6
371.12 K	336.4
372.21 K	346.1
372.9 K	351.5
373.7 K	358.8
374.59 K	366.7
375.19 K	372.1
375.78 K	377.4
376.87 K	386.8
377.37 K	391.7

c1ccccc1 [benzene]
Conditions	vapor or sublimation pressure [kPa]
403.15 K	379.3

C1CCCCC1 [cyclohexane]
Conditions	vapor or sublimation pressure [kPa]
403.15 K	362.8

CO [methanol]
Conditions	vapor or sublimation pressure [kPa]
333.42 K	85.4
334.56 K	89.5
337.65 K	101.3
342.17 K	120.9
343.06 K	124.8
346.64 K	142.6
350.25 K	163.2
353.17 K	181
353.27 K	181.7
356.35 K	202.7
358.91 K	221.3
361.45 K	241.4
363.19 K	255.9
363.85 K	261.6
366.88 K	288.9
370.13 K	321.3
372.04 K	341.2
372.9 K	350.9
375.89 K	385.4
